Assays:
COX-1 = target: T1, COX-1 (Ovis aries, UniProt P05979); experiment: COX-1 enzyme assay, PGE2 by LC-MS-MS, single point; format: biochemical; settings: read-out: CX1 ^f
T1 sequence (P05979 25-600): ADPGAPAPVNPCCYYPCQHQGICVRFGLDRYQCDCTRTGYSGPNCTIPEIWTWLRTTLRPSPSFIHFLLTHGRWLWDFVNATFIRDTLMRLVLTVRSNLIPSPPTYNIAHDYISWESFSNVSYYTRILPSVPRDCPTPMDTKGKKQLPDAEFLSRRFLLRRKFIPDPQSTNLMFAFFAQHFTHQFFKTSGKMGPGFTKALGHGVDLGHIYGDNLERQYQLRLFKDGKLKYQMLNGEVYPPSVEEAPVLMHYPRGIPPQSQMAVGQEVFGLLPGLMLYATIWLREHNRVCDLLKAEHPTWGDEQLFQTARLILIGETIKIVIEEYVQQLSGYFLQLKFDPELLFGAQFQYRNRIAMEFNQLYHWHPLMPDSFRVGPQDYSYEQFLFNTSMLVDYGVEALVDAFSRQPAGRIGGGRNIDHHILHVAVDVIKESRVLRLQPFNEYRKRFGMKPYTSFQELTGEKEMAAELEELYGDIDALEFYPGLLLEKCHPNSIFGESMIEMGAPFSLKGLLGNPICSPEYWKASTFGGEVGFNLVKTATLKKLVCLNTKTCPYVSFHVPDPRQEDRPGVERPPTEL

aromatase (CYP19) = target: T2, aromatase (CYP19) (Homo sapiens, UniProt P11511); experiment: CYP19 enzyme, dibenzylfluorescein fluorescence assay; format: biochemical
T2 sequence (P11511 1-503): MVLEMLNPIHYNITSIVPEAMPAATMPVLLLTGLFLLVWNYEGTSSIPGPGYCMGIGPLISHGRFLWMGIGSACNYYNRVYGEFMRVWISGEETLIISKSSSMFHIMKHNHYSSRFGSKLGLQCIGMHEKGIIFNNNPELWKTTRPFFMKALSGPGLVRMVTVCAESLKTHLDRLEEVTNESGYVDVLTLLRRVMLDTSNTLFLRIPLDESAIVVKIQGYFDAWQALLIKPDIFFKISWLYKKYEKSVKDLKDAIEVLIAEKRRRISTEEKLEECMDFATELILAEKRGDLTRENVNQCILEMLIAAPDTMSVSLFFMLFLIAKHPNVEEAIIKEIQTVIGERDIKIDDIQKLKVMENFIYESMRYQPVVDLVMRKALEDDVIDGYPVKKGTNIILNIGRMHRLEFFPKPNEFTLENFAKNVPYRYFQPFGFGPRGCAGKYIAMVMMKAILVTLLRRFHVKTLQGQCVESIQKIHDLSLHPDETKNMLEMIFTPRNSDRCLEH

Compound | inhibition at 10 µg/mL (COX-1) [%] | IC50 (aromatase (CYP19)) [µM]
CC(=O)OC[C@H]1OC(O[C@@H]2[C@@H](OCCC(=O)C(C)C)[C@@H](O)[C@H](Oc3c(-c4ccc(O)cc4)oc4cc(O)cc(O)c4c3=O)O[C@H]2C)[C@H](O)[C@@H](O)[C@@H]1O (stereo partly drawn) [compound 1, kaempferol 3-O-[(6‴-O-acetyl-β-D-glucopyranosyl)-(1→4)-3″-O-(4⁗, 4⁗-dimethyl-3-oxo-butyl)-α-L-rhamnopyranoside]] | 52 | –
CC(=O)OC[C@H]1O[C@@H](O[C@@H]2[C@@H](O)[C@@H](O)[C@H](Oc3c(-c4ccc(O)cc4)oc4cc(O)cc(O)c4c3=O)O[C@H]2C)[C@H](O)[C@@H](O)[C@@H]1O [compound 4, multiflorin A] | – | 15.5

Source: publication PMC2866494 (Phytochemistry, 2010)
